Patent publication US8802240B2, “Uses of formulations of thyroid hormone analogs and nanoparticulate forms thereof to increase chemosensitivity and radiosensitivity in tumor or cancer cells” (Nanopharmaceuticals LLC, priority 2011, dated 2014)
“Also recorded” adds a separate entry of the source.

Columns and labels:
[1] = system: human medullary thyroid carcinoma cells; assay: Confocal distribution of Cy3-labeled Tetrac vs Tetrac NP; type: cell-based; settings: around 2 h
Source text: Penicillin streptomycin (1%) was present in both culture media.

[2] = system: matrigel plug angiogenesis; assay: Mouse matrigel model of angiogenesis (plug hemoglobin); type: in vivo, mice (C57BL/6NCr)
Protocol: Normal male mice (C57BL/6NCr) 6-8 weeks of age and weighing ˜20 g were purchased from Taconic farm. Animals were housed 4 per cage, in controlled conditions of temperature (20-24° C.); humidity (60-70%) and 12 hrs. light/dark cycle provided with food and water ad libitum. […] Aliquots of matrigel were placed into cold polypropylene tubes to prevent the matrigel from solidifying and the angiogenesis promoter added to matrigel with or without agonist. Mice were treated daily. Matrigel was subcutaneously injected as triple injection per animal at 100 μL/animal. At day 14 post plug implant all animals were killed in CO2 chamber and matrigel plugs were collected. Plug hemoglobin content was analyzed from three implants/mice (n=6 per group) to measure angiogenesis.
The matrigel plugs dissected from the mice were carefully stripped of any remaining peritoneum. The plugs were placed into 0.5 mL tube of ddH2O and homogenized for 5-10 min. […] Absorbance was read with a Microplate Manager ELISA reader at 540 nm. […] Hemoglobin concentration is a reflection of the number of blood vessels in the plugs.

[3] = system: P-gp, GST and SOD in MCF7/R cells; assay: Western blot of classical drug resistance genes; type: cell-based; settings: 24 h
Protocol: (§1) FIG. 15A is a Western blofshowing the expression of P-gp, GST and SOD in wild type (W) drug sensitive and resistant (R) MCF7 cells. […] The cells were treated for 24 h with each drug alone or the combination of both, after that, expression of drug resistance molecules was determined by Western blot using specific antibodies. […] The cells were incubated for 24 hours with doxorubicin in the absence or the presence of Tetrac, after that they were washed and then solubilized. Radioactivity associated with the cell lysates was counted and compared between the two cell lines either treated or not with Tetrac. The data represent an average of 3 determinations±SE.

GL261 cells = assay: GL261 potentially lethal damage repair (PLDR); type: cell-based, murine
Protocol: PLDR was also measured using the 10% survival level in both control and Tetrac treated-cells, and was also done for both exponentially growing and plateau phase cells. The total 10% survival dose was given, and then cells were placed back into the 37° C. incubator for various periods of time. At 0, 0.5, 1.0, 1.5, 2.0, 3.0, 4.0, 6.0, 8.0, and 10.0 hours, flasks were removed, and processed for survival assessment.
To investigate the effects of Tetrac on SLDR and PLDR, cells were chosen that had been given a one-hour treatment with Tetrac at two different times, i.e., at 70 and 270 hours post-seeding).

MDA-MB-231 cells = assay: RNA microarray of MDA-MB-231 cells; type: cell-based, human
Protocol: MDA-MB-231 cells were maintained in DMEM that was supplemented with 10% FBS in a 5% CO2/95% 02 air incubator at 37° C. For two days prior to exposure to Tetrac and nanoparticulate Tetrac, cells were maintained in 0.25% FBS that was stripped of estrogen and thyroid hormone. (See Lin et al., Biochemistry 42: 7571-7579 (2003)).
Microarray analysis experiments were conducted as described previously. (See Glinsky et al., J Clin Invest 115: 1503-1521 (2005); Glinsky et al., J Clin Invest 113: 913-923 (2004); Glinsky et al., Clin Cancer Res 10: 2272-2283 (2004); and Glinsky et al., Mol Carcinog 37: 209-221 (2003)). […] Sample purity and integrity were verified with an Agilent BioAnalyzer (Santa Clara, Calif.). Expression analysis of 54,675 transcripts for each sample was by Affymetrix HG-U133A Plus 2.0 arrays. MAS5.0 software was used for data retrieval and analysis and concordant changes of gene expression in response to unmodified Tetrac and nanoparticulate Tetrac were defined by two-tailed t test at a threshold p value<0.01.
Expression of ˜54,000 transcripts was analyzed in control and drug-treated cultures, using Affymetrix Human Genome U133 plus 2.0 microarrays. Subsequent analysis was focused on genes affected by treatment at p<0.01. There was 93% concordance between Tetrac and Tetrac NP in terms of genes affected; notable disparities included downregulation of epidermal growth factor receptor (EGFR) by Tetrac NP and no affect of unmodified Tetrac on this gene.

[4] = system: DNA double-strand breaks in U87MG cells; assay: U87MG neutral comet assay of DNA double-strand breaks; type: cell-based, human
Protocol: For the comet assay studies of induction and repair of DSBs in U87MG cells, cells were treated as described above. However, for the single dose induction of DSBs doses ranged from 0-30 Gy, and for the study of the repair of DSBs in irradiated cells, a large single dose of 60 Gy requiring approximately 1 h of irradiation time was given. Appropriate temperature controls (on ice) were run to insure that no decrement in survival was produced by the 1 h exposure to 0° C.
U87MG cells on plastic slides were exposed to 2 nM Tetrac for 1 h at 37° C. These slides were then placed on crushed ice and irradiated with doses from 0 to 75 Gy. Slides were immersed in lysing solution at 50° C. for 2 hours. Slides were washed, and placed into a gel electrophoresis unit. Electrophoresis was carried out at 0.66 V/cm for 25 min. Cells were stained with ethidium bromide and image analysis was done using an epifluoresence microscope at a total magnification of 400×. We also used an excitation filter of 515-535 nm and a barrier filter at 590 nm. The mean tail moment (TM) which is expressed in arbitrary units was then calculated. TM was calculated using a CCD camera and software. Approximately 350 comets were analyzed per condition.

MCF7 and MCF7/R cells = assay: Intracellular accumulation of radiolabeled doxorubicin; type: cell-based; settings: 24 hours, presence vs absence of Tetrac
Protocol: as §1

O=C(O)Cc1cc(I)c(Oc2cc(I)c(O)c(I)c2)c(I)c1 [Tetrac, tetraiodothyroacetic acid]
distribution within h-MTC cells (in words) [1]: distributed in the cytoplasm | inhibition in vivo at 10 µg/plug ([2]; Mus musculus, FGF 100 ng + test substance 10 μg/plug, numbers are Tetrac analogs of Example 13): 90 ± 13% | inhibition of FGF induced angiogenesis ([2]; Tetrac 10 μg): 85% | expression of P-glycoprotein, SOD and GST-π (in words) [3]: none of these genes was significantly altered | inhibition of PLDR by a factor of (GL261 cells; exponential cells): 1.9 | decrease of PLDR expression by a factor of (GL261 cells; plateau phase cells): 3.4 | Change: BCL2L14 (MDA-MB-231 cells): not a significant stimulatory action and ↑ | Change: CASP2, Caspase 2 (MDA-MB-231 cells): not a significant stimulatory action and ↑ | Change: CBY1, Catenin inhibitor (MDA-MB-231 cells): significantly increased and induced and ↑ | Change: CDKN2C, Cyclin-dependent kinase inhibitor (MDA-MB-231 cells): ↑ | Change: CTNNA1, Catenin (MDA-MB-231 cells): ↓ | Change: CTNNA2, Catenin (MDA-MB-231 cells): ↓ | Change: CTSL1, Cathepsin 1 (MDA-MB-231 cells): ↓ | Change: CXCL10, Anti-endothelial cell chemokine (MDA-MB-231 cells): ↑ | Change: Cyclins, Cell cycle regulators (MDA-MB-231 cells): ↓ | Change: EDN1, Endothelin-1 (MDA-MB-231 cells): ↑ | Change: Interleukins, Inflammatory cytokines (MDA-MB-231 cells): ↓ | Change: MCL1, Myeloid cell leukemia-1 (MDA-MB-231 cells): did not significantly affect and ↓ | Change: NR1D1, Nuclear receptor Rev-erbα (MDA-MB-231 cells): ↓ | Change: THBS1, Thrombospondin (MDA-MB-231 cells): strongly induced and ↑ | Change: XIAP, X-linked inhibitor of apoptosis protein (MDA-MB-231 cells): acted on XIAP and ↓ | expression of epidermal growth factor receptor (EGFR) (in words) (MDA-MB-231 cells): ineffective; also recorded: no affect | effect on the slope of the mean tail moment in graded single dose studies (in words) [4]: did not affect the slope of the mean tail moment | sensitization factor from mean tail moment at 0 Gy [4]: 2.2 | inhibition of repair of DNA double strand breaks / decrease of repair rate ([4]; [(1.00−slope Tetrac/slope control)×100]): 72.5% | slope of time-dependent DSB repair ([4]; after 30 Gy of x-rays, control −4.36): −1.20 | intracellular accumulation of radiolabeled doxorubicin (in words) (MCF7 and MCF7/R cells): increased significantly
